From publication PMC11985001, “Melatonin rescues cell respiration impaired by hypoxia/reoxygenation in aortic endothelial cells and affects the mitochondrial bioenergetics targeting the F1FO-ATPase” (Redox Biology, 2025)

How the values were obtained:
[1] = target: T1, F1 domain of mitochondrial F1FO-ATPase (F1-ATPase) (Sus scrofa, UniProt K7GLT8+P80021); assay: ATP hydrolysis (Pi release) with partially purified F1, […] NBD-Cl; format: biochemical
T1 construct: gene ATP5F1B; partially purified F1 domain from swine heart mitochondria; with other subunits of the F1 complex
T1 sequence (K7GLT8 89-570): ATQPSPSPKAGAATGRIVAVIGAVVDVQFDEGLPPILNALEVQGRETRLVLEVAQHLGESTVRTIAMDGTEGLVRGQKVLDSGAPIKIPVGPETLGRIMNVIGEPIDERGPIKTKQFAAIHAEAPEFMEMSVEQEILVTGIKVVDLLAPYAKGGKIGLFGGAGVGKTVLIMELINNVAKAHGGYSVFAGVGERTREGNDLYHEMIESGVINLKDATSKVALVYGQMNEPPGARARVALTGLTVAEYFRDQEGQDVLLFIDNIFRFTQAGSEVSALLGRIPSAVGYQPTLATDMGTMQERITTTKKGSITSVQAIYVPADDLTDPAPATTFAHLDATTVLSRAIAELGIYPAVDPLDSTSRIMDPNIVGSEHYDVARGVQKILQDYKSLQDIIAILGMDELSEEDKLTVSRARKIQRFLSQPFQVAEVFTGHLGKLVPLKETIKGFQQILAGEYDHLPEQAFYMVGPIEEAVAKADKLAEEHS
T1 sequence (P80021 44-553): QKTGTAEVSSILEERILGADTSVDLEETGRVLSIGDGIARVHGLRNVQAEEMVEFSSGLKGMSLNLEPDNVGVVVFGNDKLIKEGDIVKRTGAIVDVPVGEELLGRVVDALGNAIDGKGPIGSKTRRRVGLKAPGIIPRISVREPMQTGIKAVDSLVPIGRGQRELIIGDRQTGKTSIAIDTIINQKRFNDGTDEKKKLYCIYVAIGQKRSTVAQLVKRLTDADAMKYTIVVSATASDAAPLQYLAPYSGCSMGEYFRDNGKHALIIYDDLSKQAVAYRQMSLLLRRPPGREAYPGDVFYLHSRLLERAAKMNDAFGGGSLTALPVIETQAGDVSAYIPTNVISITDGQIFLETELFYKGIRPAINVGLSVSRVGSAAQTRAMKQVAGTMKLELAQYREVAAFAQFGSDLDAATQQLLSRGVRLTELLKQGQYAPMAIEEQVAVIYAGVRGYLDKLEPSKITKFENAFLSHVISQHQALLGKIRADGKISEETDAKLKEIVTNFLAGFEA
T1 sequence (A0A286ZYL7 23-168 partner): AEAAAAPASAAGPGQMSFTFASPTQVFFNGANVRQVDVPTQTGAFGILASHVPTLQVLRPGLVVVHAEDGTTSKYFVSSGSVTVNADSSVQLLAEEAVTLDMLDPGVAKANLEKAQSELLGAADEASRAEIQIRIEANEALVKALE
T1 sequence (A5GFX4 2-51 partner): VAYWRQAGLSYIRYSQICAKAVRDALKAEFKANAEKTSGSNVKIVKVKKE

[2] = target: T2, F1 domain of mitochondrial F1FO-ATPase (Ca2+-activated F1-ATPase) (Sus scrofa, UniProt K7GLT8+P80021); assay: ATP hydrolysis (Pi release) with partially purified F1 at […] melatonin; IC50 from the mitochondrial Ca2+-activated F1FO-ATPase (K'i […]); format: biochemical
T2 construct: gene ATP5F1B; native whole F1FO-ATPase in frozen-thawed pig heart mitochondria; not purified F1
T2 sequence (K7GLT8 89-570): as the sequence (K7GLT8 89-570) above
T2 sequence (P80021 44-553): as the sequence (P80021 44-553) above
T2 sequence (A0A286ZYL7 23-168 partner): as the sequence (A0A286ZYL7 23-168 partner) above
T2 sequence (A5GFX4 2-51 partner): as the sequence (A5GFX4 2-51 partner) above
T2 sequence (Q2EN81 24-213 partner): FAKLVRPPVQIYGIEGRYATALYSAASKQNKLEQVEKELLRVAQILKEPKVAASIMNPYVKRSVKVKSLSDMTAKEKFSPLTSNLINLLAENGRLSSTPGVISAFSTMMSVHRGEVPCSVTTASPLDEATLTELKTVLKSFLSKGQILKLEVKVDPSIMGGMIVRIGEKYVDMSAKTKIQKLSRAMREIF
T2 sequence (Q35915 whole entry partner, the tested form may be a part): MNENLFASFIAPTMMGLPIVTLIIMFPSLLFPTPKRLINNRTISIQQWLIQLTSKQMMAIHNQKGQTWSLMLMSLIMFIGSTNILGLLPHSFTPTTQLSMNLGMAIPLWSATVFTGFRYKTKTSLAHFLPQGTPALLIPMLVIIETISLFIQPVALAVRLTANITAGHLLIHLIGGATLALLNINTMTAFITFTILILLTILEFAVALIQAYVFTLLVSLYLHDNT

| SMILES | ATP hydrolysis (Pi release) with partially purified F1, 75 μM NBD-Cl [1] | IC50 [2] [mM] |
| --- | --- | --- |
| O=[N+]([O-])c1ccc(Cl)c2nonc12 [NBD-Cl] | F1-ATPase activity was insensitive to oligomycin and was inhibited by NBD-Cl. | – |
| COc1ccc2[nH]cc(CCNC(C)=O)c2c1 [melatonin] | – | 6.63 ± 2.33 |
